Experimental data reported in patent publication US10166253B2, “Positively charged co-polymers for use as antimicrobial agents” (priority 2014, dated 2019).

Assays:
[1] = test system: E. coli (strain NCTC 10418); test: Antimicrobial susceptibility testing by flow cytometry-based assay (LIVE/DEAD BacLight, Syto9/PI); format: cell-based, Escherichia coli
Experimental: (§1) E. coli (strain NCTC 10418), P. aeruginosa (Strain PAO1) and S. aureus (Wood 46, NCTC 7121) cells were grown in 5 mL of Todd Hewitt Broth medium (THB; Sigma-Aldrich). Bacteria were cultivated at 37° C. for 15 h in a 15 mL tube to obtain late-log phase cultures. Bacterial cultures were pelleted at 3096 g for 10 minutes; the supernatant was discarded and bacteria were resuspended in phosphate-buffered saline (PBS) supplemented with 40 mg/ml human albumin to mimic chemical properties of blood. Bacteria were diluted to a standardized inoculum of 10^9 CFU/mL.
(§2) Bacteria were treated with GA, LL-37, Piperacillin/Tazobactam or Vancomycin in varying concentrations, i.e. 50, 25, 10 or 2 μg/ml, for 30 minutes. As a positive control, bacteria were treated with 7% isopropanol. Hereafter, bacteria were pelleted at 3096 g for 10 minutes; the supernatant was discarded and bacteria were resuspended in PBS. The antimicrobial effect was tested in a well-established and widely used flow cytometry-based assay (LIVE/DEAD® BacLight™ Bacterial Viability and Counting Kit (L34856), Molecular Probes/Invitrogen) according to manufacturer's manual.
(§3) For each bacteria, the flow cytometry-based assay was repeated four times.
Flow cytometry was used to determine the antimicrobial activity of GA and LL-37. The flow cytometry diagrams show the results after treatment with 50 μg/ml LL-37, GA, piperacillin/tazobactam, 7% isopropanol and the untreated control. […] This gating strategy was primarily applied to avoid counting beads in the upper right corner of the FS-SS. […] Thus, a two-color fluorescence assay of bacterial viability, including PI and Syto9 staining, was applied. Syto9 stains all bacteria in a population, i.e. those with intact and those with damaged membranes. In contrast, propidium iodide (PI) penetrates only bacteria with damaged membranes, thereby making quantification of bacterial viability possible.

[2] = test system: P. aeruginosa (Strain PAO1); test: as above; format: cell-based
Experimental: as §1, §2, §3
The antibacterial effect of GA on the gram-negative strain P. aeruginosa was tested by carrying out an experiment as described in Example 1. […] Although the untreated control stained positive for PI, this seemed to be explained by the capability of intact P. aeruginosa to secrete large quantities of DNA to the extracellular milieu.

[3] = test system: S. aureus (Wood 46, NCTC 7121); test: as above; format: cell-based, Staphylococcus aureus; conditions: 30 minutes
Experimental: as §1, §2, §3

P. aeruginosa (PAO1) [4] = test: Antimicrobial activity in human serum and plasma (flow cytometry, PI/Syto9); format: cell-based, Pseudomonas aeruginosa; conditions: P. aeruginosa PAO1 ~10^8 cells/ml
Source text: It has been reported that the antimicrobial activity of antimicrobial peptides are inhibited by their binding to different factors in human plasma (Wang, Y., et al., Apolipoprotein A-I binds and inhibits the human antibacterial/cytotoxic peptide LL-37. J Biol Chem, 1998. 273(50): p. 33115-8), serum and is influenced by pH and ion composition (Johansson, J., et al., Conformation-dependent antibacterial activity of the naturally occurring human peptide LL-37. J Biol Chem, 1998. 273(6): p. 3718-24). To investigate the potential of GA for systemic application, bacterial isolates of P. aeruginosa (PAO1, ˜10^8 cells/ml) were incubated with increasing concentrations of GA and compared to LL-37. Bacterial survival and enumeration was evaluated by a flow cytometry bead standard and stained with propidium iodide and Syto9 following procedures as previously described above in the antimicrobial susceptibility testing by flow cytometry-based assay. […] All experiments were performed as four replicates.

E. coli (NCTC 10418) = test: Transmission electron microscopy of treated bacteria; format: cell-based, Escherichia coli
Source text: (§4) Transmission electron microscopy (TEM) was applied to examine the ultrastructural changes in P. aeruginosa (PAO1), S. aureus (Wood 46) and E. coli (NCTC 10418) induced after treatment with GA and LL-37. […] This critical alteration in the outer membrane of E. coli has previously been described as a disintegration of the outer membrane into micelles and vesicle-like structures (Meincken, M., D. L. Holroyd, and M. Rautenbach, Atomic force microscopy study of the effect of antimicrobial peptides on the cell envelope of Escherichia coli. Antimicrob Agents Chemother, 2005. 49(10): p. 4085-92). […] After incubation with LL-37 and GA, we found burst cells, but this observation was most significant after treatment with LL-37 (FIG. 9). Scale bar, 0.5 μm. Experiments were performed as 2 replicates.

P. aeruginosa (PAO1) [5] = test: as above; format: cell-based, Pseudomonas aeruginosa
Source text: as §4

S. aureus (Wood 46) = test: as above; format: cell-based, Staphylococcus aureus
Source text: as §4

[6] = within the 30 minutes of treatment
[7] = positive control, 7% isopropanol

CC[C@H](C)[C@H](NC(=O)[C@H](CCCCN)NC(=O)[C@H](CCC(=O)O)NC(=O)[C@H](CCCCN)NC(=O)[C@H](CO)NC(=O)[C@H](CCCCN)NC(=O)[C@H](CCCNC(=N)N)NC(=O)[C@H](Cc1ccccc1)NC(=O)[C@H](Cc1ccccc1)NC(=O)[C@H](CC(=O)O)NC(=O)CNC(=O)[C@H](CC(C)C)NC(=O)[C@@H](N)CC(C)C)C(=O)NCC(=O)N[C@@H](CCCCN)C(=O)N[C@@H](CCC(=O)O)C(=O)N[C@@H](Cc1ccccc1)C(=O)N[C@@H](CCCCN)C(=O)N[C@@H](CCCNC(=N)N)C(=O)N[C@H](C(=O)N[C@H](C(=O)N[C@@H](CCC(N)=O)C(=O)N[C@@H](CCCNC(=N)N)C(=O)N[C@H](C(=O)N[C@@H](CCCCN)C(=O)N[C@@H](CC(=O)O)C(=O)N[C@@H](Cc1ccccc1)C(=O)N[C@@H](CC(C)C)C(=O)N[C@@H](CCCNC(=N)N)C(=O)N[C@@H](CC(N)=O)C(=O)N[C@@H](CC(C)C)C(=O)N[C@H](C(=O)N1CCC[C@H]1C(=O)N[C@@H](CCCNC(=N)N)C(=O)N[C@H](C(=O)N[C@@H](CCC(=O)O)C(=O)N[C@@H](CO)C(=O)O)[C@@H](C)O)C(C)C)[C@@H](C)CC)C(C)C)[C@@H](C)CC [LL-37]
percentage of bacteria testing positive for PI ([1]; 50 μg/ml, 30 minutes): 17.8%
percentage of bacteria testing positive for Syto-9 ([1]; 50 μg/ml, 30 minutes): 75.1%
antimicrobial activity (in words) [2, 6]: more potent than when treating bacteria with 7% isopropanol
decreased bacterial inoculum [2, 6]: ~75%
increased PI positivity ([2]; within the 30 minutes of treatment (FIG. 4 overview)): ~50%
antimicrobial activity (in words) [3]: more potent than Vancomycin
percentage of bacteria testing positive for PI [3]: 31.9%
antimicrobial activity in human plasma and serum (in words) (P. aeruginosa (PAO1) [4]): retains antimicrobial activity
ultrastructural changes (TEM, in words) (E. coli (NCTC 10418)): Signs of damage to the bacterial membrane
ultrastructural changes (TEM, in words) (P. aeruginosa (PAO1) [5]): dramatically reduced number of P. aeruginosa
ultrastructural changes (TEM, in words) (S. aureus (Wood 46)): burst cells

CN[C@H](CC(C)C)C(=O)N[C@H]1C(=O)N[C@@H](CC(N)=O)C(=O)N[C@H]2C(=O)N[C@H]3C(=O)N[C@H](C(=O)N[C@H](C(=O)O)c4cc(O)cc(O)c4-c4cc3ccc4O)[C@H](O)c3ccc(c(Cl)c3)Oc3cc2cc(c3O[C@@H]2O[C@H](CO)[C@@H](O)[C@H](O)[C@H]2O[C@H]2C[C@](C)(N)[C@H](O)[C@H](C)O2)Oc2ccc(cc2Cl)[C@H]1O [Vancomycin]
antimicrobial activity (in words) [3]: comparable to the one obtained for LL-37

Piperacillin/Tazobactam
percentage of bacteria testing positive for PI ([1]; 50 μg/ml, 30 minutes): 10%
percentage of bacteria testing positive for Syto-9 ([1]; 50 μg/ml, 30 minutes): 86.8%
antimicrobial activity (in words) [1, 6]: no antimicrobial activity
PI positivity ([2]; 50 μg/ml, 30 minutes): about 30%
antimicrobial activity (in words) [2, 6]: no antimicrobial activity

CC(C)O [isopropanol]
percentage of bacteria testing positive for PI [1, 7]: 32.2%
percentage of bacteria testing positive for Syto-9 [1, 7]: 61.7%
